Assay [1] concerns TG3 immunoreactivity in OKA treated MSN1a cells. Kind of assay: Inhibition of TG3 immunoreactivity in OKA treated MSN1a cells (ELISA). The class given is cell-based, human. Particulars: TG3 antibody; for IC50: Homo sapiens, 1 μM OKA, 0-64 μM drug, 2 hrs at 37° C. The method, then:
This assay can thus be used to determine whether a drug is capable of preventing or intervening in AD by attenuating the production of abnormally phosphorylated paired helical filament epitopes associated with AD. To determine whether a drug is capable of preventing or intervening in AD activity, the MSN1a cells containing tau and associated proteins are treated with OKA capable of greatly increasing immunoreactivity of the MSN1a cells with AD specific monoclonal antibodies. Then, either prior to or concomitantly with OKA treatment, a compound of the present invention is added to the culture. If the compound prevents the induction of the AD epitopes in the MSN1a cells treated with OKA, then it is said to have anti-AD activity. If the AD-specific antibodies are highly reactive with the neuroblastoma cells following OKA treatment in the presence of compound, then the compound is said to be ineffectual against AD.
The MSN1a human neuroblastoma line was subcloned from a population of MSN cells obtained from the laboratory of Dr. Peter Davies (Albert Einstein College of Medicine, New York, N.Y.). Cells were grown and maintained in flasks in RPMI 1640 medium, supplemented with 15% fetal calf serum, 100 U/ml penicillin, 100 U/ml Streptomycin, 0.5 ug/ml fungizone under 7.5% CO2 at 37° C.
Stock solutions of drugs were prepared by dissolving the anhydrous powders to final concentrations of either 10 or 20 mM in 50% aqueous or 100% dimethyl sulfoxide (DMSO), respectively. Working solutions of drugs were prepared by dilution of the stock solutions with Kreb's Ringer in Hepes buffer (KRH) (128 mM NaCl, 5 mM KCl, 2.5 mM CaCl2 1.2 mM MgSO4, 1 mM Na2 HPO4, 10 mM dextrose, 20 mM Hepes, pH 7.4). OKA is maintained as a 1 mM stock solution in DMSO prior to dilution to 4 μM in KRH.
MSN cells grown in 225 cm^2 flasks are removed from the incubator, their medium decanted and replaced with 50 ml pre-warmed KRH. The cells are harvested by scraping prior to sedimentation at 1000 rpm for 5 min. The supernatants are discarded and the cell pellets are resuspended, the cells counted and diluted to a density of 2×10^4 cells/[…]. The cells are then plated in a 96 well plate at 50 μl/well and 25 μl of 4 μM OKA and 25 μl of drug are then added to the appropriate wells; the entire 96 well plate is then incubated for 2 hrs at 37° C. Depending on the dilution of drug added, this yields individual wells containing 1 μM OKA, 0-64 μM drug and 2×10^4 cells in 0.26% DMSO in KRH. The incubation is terminated by the addition of 20 μl of 6X extraction buffer and immediate freezing at -80° C. for at least one hr. The 6X extraction buffer contains: 25 mM Tris-HCl, pH 7.6, 150 mM NaCl, 5 mM EDTA, 24 mM δ-glycerol phosphate, 10 μg/ml APMSF (4-amidinophenylmethane-sulfonyl flouride), and 2.5 μg/ml each of leupeptin, aprotinin, and pepstatin. The plates are thawed in a 37° C. water bath and 20 μl of cell lysate is added to a replica well in an ELISA plate that already contains 80 μl of coating buffer (15 mM Na2 CO3 and 35 mM NaHCO3, pH 9.6). The plates are allowed to coat overnight at 4° C. The plates are washed four times with deionized water and then blocked for 30 min at 37° C. with 200 μl/well pre-warmed 1% bovine serum albumin in 10 mM Tris-HCl, pH 7.4, 150 mM NaCl, 3 mM NaN3 (BSA-TBS). After the blocking solution is removed, 100 μl/well of an appropriate dilution of pre-warmed primary antibody (eg., TG3 or PHF-1) in BSA-TBS is added and incubated at 37° C. for 30 min. Incubation is terminated by washing four times in deionized water at which time 100 μl of an appropriate dilution of pre-warmed secondary antibody (conjugated to alkaline phosphatase) in BSA-TBS is added to each well in the ELISA plate. Incubation is performed for 30 min at 37° C. followed by washing 4 times with deionized water. […] of prewarmed chromogenic substrate (1 mg/ml p-nitrophenyl phosphate in 10% diethanolamine, 3 mM NAN3, 0.5 mM MgCl2, pH 9.8) is added and the plate incubated for 30 min at 37° C. […]
In general terms: An ELISA detects its analyte on a solid surface through an enzyme-linked reagent.

Assay [2] concerns PHF-1 and TG3 epitopes in MSN1a cells. Kind of assay: Generation of Alzheimer brain specific epitopes in MSN1a cells. Particulars: epitopes absent or very low in untreated cells. The class given is cell-based, human. The method, then: Conditions were established which led to hyperphosphorylation of the proteins known to be involved in PHF formation. Using monoclonal antibodies PHF-1 and TG3 generated to human PHF preparations, the effects of a variety of manipulations of the phosphorylation state of these proteins were tested. These tests required that most of the abnormal epitopes recognized by these monoclonal antibodies in the human Alzheimer brain should be generated in the MSN1a cells. […] These epitopes are either absent or present at a very low level in untreated MSN1a cells.
Shown in FIG. 2A are bar graphs (percent of AD) of the ELISA immunoreactivity of brain preparations (AD or normal) to either PHF-1 or TG3. Shown in FIG. 2B are bar graphs (percent of MSN+) of the ELISA immunoreactivity of MSN1 a cell preparations (minus or plus okadaic acid) to either PHF-1 or TG3. The MSN1a cell preparations plus vs minus okadaic acid closely parallel the AD vs normal brain preparations. […] The cell culture system according to the invention in which epitopes characteristic of PHF can be readily generated and subsequently recognized by the specific Alzheimer brain specific antibodies provides an assay suitable for screening compounds for their ability to block the production of these phosphorylated epitopes.

The subject of assay [3] is paired helical filament epitopes (TG3) in human brain tissue. The assay can be described thus: Direct ELISA with TG3 antibody on post-mortem brain tissue of patients (second retrospective study). The class given is in vivo. Conditions: chlorpromazine treated patients (Rx), N 51, summed absorbance. The text has this: In a subsequent study, 51 additional patients were identified and the analysis was repeated as above using the TG3 antibody in an ELISA format. The results, summarized in Table 1, clearly reproduce and confirm the first retrospective study. Immunohistopathological studies carried out on several brain regions from these patients were consistent with these ELISA results. Taken together, these two studies provide evidence of the therapeutic benefit of chlorpromazine in AD and validate the use of the MSN1a model for the identification of therapeutically useful compounds for the treatment of AD.
*Signal is calculated by summing the means of duplicate absorbance
readings (direct ELISA using TG3 antibody) for 8 dilutions of all lysates
prepared by one to two serial dilutions.

In assay [4] the test system is PHF epitope (ADAP) levels in human brain tissue. Kind of assay: ALZ-EIA of PHF epitope (ADAP) levels in post-mortem brain tissue of chronically treated patients (first retrospective study). Conditions: chronically chlorpromazine treated patients (Rx), Brodman areas 10 and 38, ALZ-EIA. It counts as in vivo. The method, then:
FIG. 4A is a chart showing relative ADAP concentrations in Brodman Area 10 in Alzheimer's Disease patients, normal controls and patients treated with chloropromazine (Rx).
FIG. 4B is a chart showing relative ADAP concentrations in Brodman Area 38 in Alzheimer's Disease patients, normal controls and patients treated with chloropromazine (Rx).
Frontal and cortical brain tissue specimens obtained at autopsy from patients chronically treated with chlorpromazine were analyzed using the ALZ-EIA method previously described (Ghanbari, H A, et al, JAMA, 263, 2907, 1990). The results are shown in FIGS. 4A and 4B frontal (Broadman area 10) and temporal (Broadman area 38) regions, respectively. The brain tissue (post-mortem) from approximately the same number of (age matched) normal controls and Alzheimer's Disease patients were also analyzed and are presented in these figures as negative and positive controls (for normal and AD, respectively).

The subject of assay [5] is paired helical filament epitopes (PHF-1) in MSN1a cells. Kind of assay: Western blot of PHF-1 immunoreactivity in MSN1a cells treated with okadaic acid. The class given is cell-based, human. The method, then: FIG. 3 is a western blot showing PHF-1 immunoreactivity in lysates from control and chlorpromazine treated MSN cells treated with okadaic acid.
These compounds are effective at micromolar concentrations, with increased potency being evident when cells are treated prior to the addition of okadaic acid. The effective concentrations appear to be in the range at which these drugs are present in the brain following chronic treatment of psychiatric patients (Svendsen, CN, Psychopharmacology, 90, 316-321, 1986).
To determine the effect of chlorpromazine on the paired helical filament epitopes associated with AD, MSN1a cells expressing paired helical filament epitopes were incubated with […] chlorpromazine (CPZ) or a 0.2% DMSO vehicle control for 2 hours at 37° C. The cells were isolated by centrifugation, boiled for 10 minutes and […] protein from the resulting heat stable supernatants were loaded per lane on an SDS-PAGE gel. The gel was electrophoretically transferred to nitrocellulose membrane and then immunostained with PHF-1. […] The use of the MSN1a cell culture model for screening of novel compounds for therapeutic activity in AD is, therefore, quite warranted.

The structures appear in SMILES notation. Counter-ions that a name gives are not always drawn.

Regarding `CN(c1cccc(C(=O)CCN2CCOCC2)c1)S(C)(=O)=O` [Example 34, 1-[m-(N-Methyl-N-methylsulfonylamino)phenyl]-3-(4'-morpholinyl)-1-propanone hydrochloride], the IC50 in assay [1] stood at 7.5 µM.
Same read-out and setting: with `CCCN1CCN(CCC(=O)c2cccc(C)c2)CC1` [Example 5, 1-(m-Methylphenyl)-3-(4'-propyl-1'-piperazinyl)-1-propanone dihydrochloride] the figure was 15.8 µM; with `CC1CN(CCC(=O)c2ccccc2)C(C)CN1CCC(=O)c1ccccc1` (centres unmarked) [Example 45, 1,4-Bis-(3'-Phenylpropane-3'-one-1'-yl)-2,5-dimethylpiperazine dihydrochloride], 11.4 µM; with `CN1CCN(CCC(=O)c2ccccc2)CC1` [Example 1, 1-Phenyl-3-(4'-methyl-1'-piperazinyl)-1-propanone dihydrochloride], 12.4 µM.
Take `CN1CCN(CCC(=O)c2ccccc2F)CC1` [Example 23, 1-(o-Fluorophenyl)-3-(4'-methyl-1'-piperazinyl)-1-propanone dihydrochloride]: the IC50 in assay [1] is 13.2 µM.
Same read-out and setting: with `CC1CN(CCC(=O)c2cccc([N+](=O)[O-])c2)CC(C)N1` (centres unmarked) [Example 26, 1-(m-Nitrophenyl)-3-(2',6'-dimethyl-4'-piperazinyl)-1-propanone dihydrochloride] the figure was 7.3 µM.
With `C=C1[C@@H](O)[C@@H]2O[C@]3(CC[C@H](/C=C/[C@@H](C)[C@@H]4CC(C)=C[C@@]5(O[C@H](C[C@@](C)(O)C(=O)O)CC[C@H]5O)O4)O3)CC[C@H]2O[C@@H]1[C@@H](O)C[C@H](C)[C@H]1O[C@@]2(CCCCO2)CC[C@H]1C` [okadaic acid], the “generation of the epitopes associated with Alzheimer brain specific monoclonal antibodies” value in assay [2] is recorded as “found to generate the epitopes”.
On to `O=C(CCN1CCOCC1)c1cc(Cl)ccc1Cl` [Example 17, 1-(2",5"-Dichlorophenyl)-3-(4'-morpholinyl)-1-propanone hydrochloride], for which 15.8 µM corresponded to half-maximal inhibition in assay [1] (IC50). In other words, the double-digit micromolar range.
In assay [1], `O=C(CCN1CCOCC1)c1ccc(Br)cc1` [Example 42, 1-(p-Bromophenyl)-3-(4'-morpholinyl)-1-propanone hydrochloride] gave an IC50 of 6.4 µM.
`O=C(CCN1CCOCC1)c1cccc([N+](=O)[O-])c1` [Example 30, 1-(m-Nitrophenyl)-3-(4'-morpholinyl)-1-propanone hydrochloride] displayed an IC50 in assay [1] of 5.9 µM.
Regarding `CN(C)CCCN1c2ccccc2Sc2ccc(Cl)cc21` [Chlorpromazine, chlorpromazine], the “SIGNAL ± SEM, Temporal” value in assay [3] (Normal 0.00 ± 0.00, AD 17.55 ± 2.82) turned out to be 0.16 ± 0.11. In addition, in assay [3] (Normal 0.12 ± 0.12, AD 16.54 ± 2.59), the “SIGNAL ± SEM, Frontal” value was determined as 0.12 ± 0.11. The “PHF epitope levels in brain” value in assay [4] is “low PHF epitope levels similar to normal controls”. The “production of paired helical filament epitopes” value in assay [5] (100 mM chlorpromazine, 2 hours at 37° C., PHF-1 immunostain) is reported as “greatly decreased the production of paired helical filament epitopes”. For the same compound, in assay [5] (AD specific antibodies, FIG. 3), the “inhibition of expression of PHF epitopes upon treatment of MSN1a cells with okadaic acid” value is listed as “markedly inhibit the expression of PHF epitopes”. Further, in assay [1], the IC50 is about 70 µM and the “inhibition of production of aberrant phosphorylated epitopes in the MSN1a cell culture model (in words)” value is given as “effective in inhibiting the production of these aberrant phosphorylated epitopes”.
In assay [1], `O=C(CCN1CCOCC1)c1cccc(Cl)c1` [Example 38, 1-(m-Chlorophenyl)-3-(4'-morpholinyl)-1-propanone hydrochloride] displayed an IC50 of 5.8 µM.
For `COc1ccccc1C(=O)CCN1CCOCC1` [Example 13, 1-(o-Methoxyphenyl)-3-(4'-morpholinyl)-1-propanone hydrochloride], inhibition in assay [1] was half-maximal at 9.1 µM (IC50).
Same read-out and setting: the figure for `Cc1cccc(C(=O)CCN2CCOCC2)c1` [Example 9, 1-(m-Methylphenyl)-3-(4'-morpholinyl)-1-propanone hydrochloride] is 5.4 µM.

As a reminder, the IC50 is the concentration that gives 50% inhibition. Higher therefore signals lower potency.
